These results are taken from patent publication US20240279215A1 (Cytokinetics, Incorporated, priority 2022, published 2024).

Data set [1] addresses human NAMPT (Homo sapiens (Human), UniProt P43490). Nature of the data set: NMN fluorescence biochemical assay (human recombinant NAMPT enzyme assay). An outline of the steps:
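NMN formed was detected by fluorescence (Ex/Em 355/460 nm) after acetophenone, KOH and formic acid derivatization. The cell-free reaction ran 60 min at ambient temperature with 6 nM human NAMPT, 150 μM nicotinamide, 20 μM PRPP, 2.5 mM ATP, pH 7.2 HEPES, and compound dose responses.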

Data set [2] concerns MDCK-MDR1 cells (P-gp, MDR1). Conditions: dog, MDCK-MDR1, 120 min, 1 μM, pH 7.4.
Description: (§1) A bidirectional permeability assay using Madin Darby canine kidney cells expressing multi-drug resistance gene 1 (MDCK-MDR1) is routinely used to evaluate discovery compounds' BBB permeability and drug efflux toward the advancement of discovery compounds with brain penetration.
(§2) MDCK-MDR1 Cells (NIH cell line) were obtained from the National Institutes of Health. […] Cell culture medium was replaced every other day, beginning no later than 24 hours after the initial plating. […] The dosing solution concentration was 1 μM for the test article in the assay buffer. Cell monolayers were dosed on the apical side (A-to-B) or basolateral side (B-to-A) and incubated at 37° C. under an atmosphere of 5% CO2 in a humidified incubator. Samples were taken from the donor and receiver chambers at 120 minutes. Each determination was performed in duplicate. After the 120 min transport period, the flux of lucifer yellow was also measured for each monolayer to ensure no damage was inflicted to the cell monolayers during the transport period. All samples were assayed by LC-MS/MS (Waters XSelect HSS T3 C18, 2.5 m, 2.1×50 mm) using electrospray ionization with 0.1% formic acid in water (mobile phase A) and 0.1% formic acid in acetonitrile (mobile phase B) as mobile phases. The apparent permeability coefficient (Papp), in units of cm per second, was calculated for MDCK-MDR1 Cells (NIH cell line) drug transport assays using the following equation:
(§3) Where VA is the volume (in mL) in the acceptor well, Area is the surface area of the membrane (0.143 cm^2 for Transwell-96 Well Permeable Supports), and time is the total transport time in seconds.
(§4) The leakage of Lucifer Yellow (LY), in unit of percentage (%), can be calculated using the following equation:
(§5) LY leakage of <1% is acceptable to indicate the well-qualified MDCK-MDR1(NIH) monolayer.
Data set [3] has as its system P-gp (MDR1). Nature of the data set: in vitro. The note with it: dog, MDCK-MDR1, pH 7.4, Efflux ratio.
Description: as §1, §2, §3, §4, §5
Data set [4] in a line: Plasma protein binding (PPB), mouse. It counts as in vitro ADME.
In data set [5] the test system is MDCK-MDR1 cells (P-gp, MDR1). Nature of the data set: MDR1-MDCK bidirectional permeability assay. Conditions: A to B.
Description: as §1, §2, §3, §4, §5
Data set [6] has as its system P-gp (MDR1). Nature of the data set: MDR1-MDCK bidirectional permeability assay. Conditions: dog, MDCK-MDR1, pH 7.4, Efflux ratio.
Description: as §1, §2, §3, §4, §5
The nature of data set [7]: Brain tissue binding, mouse. It counts as in vitro ADME.
Data set [8] is described as follows: Brain exposure assay in mice (brain-to-plasma ratio after oral administration). The note with it: mouse, 100 mg/kg; for concentration at 6 h / Kp at 2 h / Kp uu at 2 h / Kp at 6 h / Kp uu at 6 h: male, C57BL/6JNIFDC, oral; for Kp at 2 h / Kp at 6 h: total brain-plasma concentration ratio; for Kp uu at 2 h / Kp uu at 6 h: unbound brain-to-plasma partition coefficient; for Kp at 2 h / Kp uu at 2 h / Cbrain, free (μM) / Cbrain, total (μM) / Cplasma, free (μM) / Cplasma, total (μM): 2 hr. It counts as in vivo. On the procedure:
This protocol was used to determine the brain-to-plasma ratio in vivo in mice post oral administration of test compounds. Mice (C57BL/6JNIFDC, male, non-fasted, 18-30 g body weight, 3 mice for each timepoint) were dosed orally at 100 mg/kg (10 mg test compound/mL formulation, 10 mL dosing volume/kg) with plasma and brain tissues obtained at 2- and 6-hours post-administration. The oral dosing formulation composition used was 10% N,N-dimethylacetamide:20% propylene glycol:70% of 40% aqueous 2-hydroxypropyl-β-cyclodextrin.
For the isolation of mouse plasma from dosed animals, approximately 0.3 mL blood was collected by orbital sinus bleed and centrifuged (4000 g, 5 minutes, 4° C.). The plasma samples were stored frozen at −75±15° C. until further processing.
For the isolation of brain tissue from dosed animals, whole brain tissues were collected from euthanized and fully exsanguinated mice. The tissues were quickly rinsed with distilled water, dried with absorbent paper, followed by rapid freezing on dry ice and then storage at −75±15° C. until further processing. Brain tissue samples obtained from frozen whole brain were weighed and the samples homogenized using three equivalents of distilled water (3 mL per gram of brain tissue).
Standard and quality control samples were prepared by adding 3 μL of the test compound dimethyl sulfoxide (DMSO) stock solutions to blank plasma (30 μL) and blank brain homogenate aliquots (30 μL). Standard curves for brain and plasma were generated over a 1 to 1,000 ng/g test compound concentration range. For the extraction of test compound from plasma and brain tissue homogenate samples, a solution of acetonitrile containing internal standard ([…]) was added to 30 μL of samples with added 3 μL of DMSO. The samples then were vortex-mixed followed by centrifugation at 4000 rpm (4° C., 15 minutes). The resultant supernatants were diluted 5-fold with distilled water. Finally, 10 μL of the diluted supernatant was injected onto an LC-MS/MS instrument for quantitative analysis of test compound.
The brain-to-plasma ratio was calculated by the relationship: Brain-to-plasma ratio=Cbrain/Cplasma; where Cb is the concentration in brain tissue and Cp is the concentration in plasma at the corresponding timepoint.
Kp is the total brain-plasma concentration ratio; Kp=Cbrain/Cplasma.
Kp, uu is the unbound brain-to-plasma partition coefficient (Kp,uu,brain). It is a measure of the extent of the distribution equilibrium of a compound between the unbound (free) fractions in brain and in blood plasma; Kp, uu brain=Cu, brain/Cu, plasma.

[9] abbreviates: plasma, read-out: Cplasma, free.
The mark [10] stands for this setting: plasma, read-out: Cplasma, total.

Where two headings read alike, the source gives them in different places.

Chain of human NAMPT (P43490 whole entry): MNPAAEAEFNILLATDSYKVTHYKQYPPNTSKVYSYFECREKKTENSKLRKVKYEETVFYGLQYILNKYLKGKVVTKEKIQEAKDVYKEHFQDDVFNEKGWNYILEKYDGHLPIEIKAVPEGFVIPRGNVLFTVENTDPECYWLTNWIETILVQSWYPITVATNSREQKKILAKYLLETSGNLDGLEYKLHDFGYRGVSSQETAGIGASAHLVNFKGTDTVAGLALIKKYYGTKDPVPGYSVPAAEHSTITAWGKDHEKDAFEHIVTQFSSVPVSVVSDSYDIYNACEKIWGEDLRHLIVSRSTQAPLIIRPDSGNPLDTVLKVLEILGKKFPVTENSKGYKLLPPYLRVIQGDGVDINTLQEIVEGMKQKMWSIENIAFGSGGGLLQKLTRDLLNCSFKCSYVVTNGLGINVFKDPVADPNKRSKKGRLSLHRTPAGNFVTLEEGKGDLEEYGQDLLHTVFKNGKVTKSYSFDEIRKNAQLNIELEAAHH

A word on the EC50: it is the concentration needed to bring the measured effect to its halfway point. As usually defined, the efflux ratio is a quotient of directional permeabilities that is used to spot active efflux. As for `O=C(Nc1ccc(CC2CC3CCC(C2)N3S(=O)(=O)C2CC2)cc1)OCc1cnco1` (stereo not shown) [Compound 395, oxazol-5-ylmethyl (4-((8-(cyclopropylsulfonyl)-8-azabicyclo[3.2.1]octan-3-yl)methyl)phenyl)carbamate], in data set [1], the “AC1.4 Human” value worked out at 0.12 µM and the EC50 came to 3.2 µM. In addition, in data set [2], the PappAB is 2.81. The efflux ratio at 120 min, 1 μM in data set [3] was 5.02.
One may read the fraction unbound as the share of the substance not bound to proteins or other matrix. Low values mean little free substance, high ones much free substance. Usually Kp stands for tissue or fluid exposure divided by exposure in the circulation. Consider `CN(C)S(=O)(=O)N1CCC(Cc2ccc(NC(=O)OCc3cnco3)cc2)CC1` [Compound 27, oxazol-5-ylmethyl (4-((1-(N,N-dimethylsulfamoyl)piperidin-4-yl)methyl)phenyl)carbamate], for which, in data set [4] (mouse, plasma), the fraction unbound amounted to 0.037. The molecule further registered a PappAB in data set [5] of 7.68. For the same molecule, the efflux ratio at 120 min, 1 μM in data set [6] amounted to 1.99. Also, in data set [1], the “AC1.4 Human” value stood at 0.36 µM and the EC50 amounted to 5.25 µM. The molecule also returned a fraction unbound in data set [7] (mouse, brain tissue) of 0.053. In data set [8] (brain, read-out: Cbrain, free), the concentration at 6 h is 70 nM. In data set [8] (brain, read-out: Cbrain, total), the concentration at 6 h was determined as 1500 nM. Moreover, the concentration at 6 h in data set [8] (setting [9]) turned out to be 220 nM. The concentration at 6 h in data set [8] (setting [10]) was 5900 nM. Further, in data set [8], the Kp at 2 h was determined as 0.29, the Kp uu at 2 h is 0.41, the Kp at 6 h worked out at 0.25 and the Kp uu at 6 h was 0.32. Besides, in data set [8], the “Cbrain, free (μM)” value is 0.64, μM; the “Cbrain, total (μM)” value is reported as 12.0, μM; the “Cplasma, free (μM)” value was 1.55, μM; the “Cplasma, total (μM)” value is recorded as 42.1, μM.
The molecule `CN(C)S(=O)(=O)N1CC2(CC(Cc3ccc(NC(=O)OCc4cnco4)cc3F)C2)C1` [Compound 399, oxazol-5-ylmethyl (4-((2-(N,N-dimethylsulfamoyl)-2-azaspiro[3.3]heptan-6-yl)methyl)-3-fluorophenyl)carbamate] gave a fraction unbound in data set [4] of 0.01. Moreover, in data set [1], the “AC1.4 Human” value came out at 0.15 µM and the EC50 is 3.88 µM. The fraction unbound in data set [7] was found to be 0.012. Also, the concentration at 6 h in data set [8] (brain, read-out: Cbrain, free) worked out at 140 nM. In addition, the concentration at 6 h in data set [8] (brain, read-out: Cbrain, total) was found to be 11500 nM. For the same molecule, the concentration at 6 h in data set [8] (setting [9]) was found to be 270 nM. In addition, the concentration at 6 h in data set [8] (setting [10]) stood at 26800 nM. Besides, in data set [8], the concentration ratio (Kp) at 2 h is 0.44, the Kp uu at 2 h was found to be 0.52, the Kp at 6 h came to 0.43 and the Kp uu at 6 h stood at 0.52. For the same molecule, in data set [8], the “Cbrain, free (μM)” value is on record as 0.23, μM; the “Cbrain, total (μM)” value was 19.5, μM; the “Cplasma, free (μM)” value is reported as 0.44, μM; the “Cplasma, total (μM)” value is 44, μM.
On to `CN(C)C(=O)N1CCC(Cc2ccc(NC(=O)OCc3cnco3)cc2F)CC1` [Compound 449, oxazol-5-ylmethyl (4-((1-(dimethylcarbamoyl)piperidin-4-yl)methyl)-3-fluorophenyl)carbamate], for which the fraction unbound in data set [4] (mouse, plasma) came out at 0.022. The PappAB in data set [5] came to 3.53. The efflux ratio at 120 min, 1 μM in data set [6] came out at 5.74. For the same molecule, in data set [1], the “AC1.4 Human” value is 0.10 µM and the EC50 came out at 2.93 µM. The same molecule returned a fraction unbound in data set [7] (mouse, brain tissue) of 0.033. Also, in data set [8] (brain, read-out: Cbrain, free), the concentration at 6 h came to 280 nM. The concentration at 6 h in data set [8] (brain, read-out: Cbrain, total) is 8400 nM. Moreover, the concentration at 6 h in data set [8] (setting [9]) worked out at 390 nM. In addition, the concentration at 6 h in data set [8] (setting [10]) was 18000 nM. Further, in data set [8], the Kp at 2 h is 0.42, the Kp uu at 2 h came out at 0.64, the Kp at 6 h was 0.47 and the Kp uu at 6 h stood at 0.72. Further, in data set [8], the “Cbrain, free (μM)” value is given as 0.83, μM; the “Cbrain, total (μM)” value was 25.0, μM; the “Cplasma, free (μM)” value was 1.30, μM; the “Cplasma, total (μM)” value is listed as 59.4, μM.
Take `CN(C)C(=O)N1CC2(CC(c3ccc(NC(=O)OCc4cnco4)cc3F)C2)C1` [Compound 400, oxazol-5-ylmethyl (4-(2-(dimethylcarbamoyl)-2-azaspiro[3.3]heptan-6-yl)-3-fluorophenyl)carbamate]: in data set [4], the fraction unbound turned out to be 0.043. Moreover, in data set [1], the “AC1.4 Human” value is 0.11 µM and the EC50 was 15.4 µM. In data set [7], this molecule came in with an unbound share (fraction unbound) of 0.054. Also, the concentration at 6 h in data set [8] (brain, read-out: Cbrain, free) was determined as 80 nM. In data set [8] (brain, read-out: Cbrain, total), the concentration at 6 h stood at 1400 nM. Also, in data set [8] (setting [9]), the concentration at 6 h amounted to 140 nM. In data set [8] (setting [10]), the concentration at 6 h was 3100 nM. In addition, in data set [8], the Kp at 2 h is 0.43, the Kp uu at 2 h came out at 0.53, the Kp at 6 h was determined as 0.43 and the Kp uu at 6 h amounted to 0.57. Moreover, in data set [8], the “Cbrain, free (μM)” value is 0.31, μM; the “Cbrain, total (μM)” value is 5.8, μM; the “Cplasma, free (μM)” value was 0.58, μM; the “Cplasma, total (μM)” value is listed as 13.5, μM.
Turning to `CC(C)S(=O)(=O)N1CCC(Cc2ccc(NC(=O)OCc3cnco3)cc2)CC1` [Compound 464, oxazol-5-ylmethyl (4-((1-(isopropylsulfonyl)piperidin-4-yl)methyl)phenyl)carbamate], the PappAB in data set [5] is 9.11. Further, in data set [6], the efflux ratio at 120 min, 1 μM stood at 2.19. In addition, in data set [1], the “AC1.4 Human” value came to 0.14 µM and the EC50 was determined as 3.07 µM.
For the molecule `CN(C)C(=O)N1CCC[C@H](c2ccc(NC(=O)OCc3cnco3)cc2)C1` [Compound 376, oxazol-5-ylmethyl (R)-(4-(1-(dimethylcarbamoyl)piperidin-3-yl)phenyl)carbamate], the fraction unbound in data set [4] (mouse, plasma) is 0.024. In data set [5], the PappAB is reported as 8.06. Besides, in data set [6], the efflux ratio at 120 min, 1 μM came to 4.11. Besides, in data set [1], the “AC1.4 Human” value amounted to 0.06 µM and the EC50 worked out at 2.02 µM. In data set [7] (mouse, brain tissue), this molecule showed a fraction unbound of 0.132. In addition, the concentration at 6 h in data set [8] (brain, read-out: Cbrain, free) amounted to 1000 nM. Besides, in data set [8] (brain, read-out: Cbrain, total), the concentration at 6 h was determined as 7500 nM. Moreover, the concentration at 6 h in data set [8] (setting [9]) was 1090 nM. The concentration at 6 h in data set [8] (setting [10]) turned out to be 45500 nM. Moreover, in data set [8], the partition ratio (Kp) at 2 h is 0.16, the Kp uu at 2 h is 0.89, the Kp at 6 h was 0.16 and the Kp uu at 6 h was 0.92. Moreover, in data set [8], the “Cbrain, free (μM)” value was 2.2, μM; the “Cbrain, total (μM)” value is given as 16.5, μM; the “Cplasma, free (μM)” value was 2.48, μM; the “Cplasma, total (μM)” value is listed as 104, μM.
